Measured values from patent publication US20100075893A1, “PREPARATION OF A PHARMACEUTICAL COMPOSITION FOR INCREASING BONE MINERAL DENSITY” (priority 2008, published 2010).
Positions of bridges follow the written chain, without caps; N, C: chain ends. No end group written: not given here.

Legend:
C57B1/6J females [1] = experiment: Bone mineral density increase in mice by slow release CART treatment (in vivo micro-CT, distal femur)
Procedure: In this experiment mice were treated with 3 different concentrations of CART peptide. The experiment was conducted in 12 weeks old C57B1/6J females and consisted of four experimental groups (n=5 per group). The first group of mice received placebo slow release pellets (SX-999, 60 day slow release pellets, Innovative Research of America, Sarasota, Fla.). The other three groups were treated with SX-999 slow release pellets containing either 20 μg, 50 μg or 100 μg (2×50 μg) rat CART 55-102 peptide (rCART) (Phoenix Pharmaceuticals, Inc. Belmont, Calif.). Mice were sedated with injection anaesthetics (Hypnorm (VetaPharma, Leeds, UK)/Dormicum (Roche, Mijdrecht, The Netherlands)) and the pellets were implanted subcutaneously in the neck. Bone architecture and density was determined at the distal femur at T=0 by an in vivo micro-CT measurement (Skyscan1076 micro-CT scanner, Skyscan, Kontich, Belgium). Scans were performed at 9 μm resolution. Trabecular bone analysis was performed on a 2 mm slice 150 μm proximal to the distal growth plate of the femur. In vivo micro-CT measurements were repeated at day 28 and day 60. The BMD value of the placebo group at T=0, T=28 and T=60 days was set at 100% and the BMD values of the 20 μg, 50 μg and 100 μg (2×50 μg) CART treated groups were calculated relatively to the placebo group. Values are expressed as mean±SD of the individual data. For statistical analysis the treatment groups were compared with the placebo group of the corresponding time point in a standard Student T-test (two-tailed). P<0.05 was considered as significant.

bovine granulosa cells = experiment: CART induced suppression of FSH-induced 17β-estradiol production in bovine granulosa cells; format: cell-based; conditions: 1 μM CART peptide, 7 days culture
Procedure: Ovaries from double muscled cows were obtained at a local abattoir and granulosa cells were collected from 3- to 5-mm follicles at random stages of the estrus cycle. Follicles were placed in culture medium (M505 medium (Gibco Invitrogen, Carlsbad, Calif., USA) supplemented with antibiotics (100 IU/ml penicillin and 0.1 mg/ml streptomycin (Invitrogen, Carlsbad, Calif., USA), 10 ng/mL insulin (Schering-Plough, Oss, The Netherlands), 4 ng/mL sodium selenite (Sigma Aldrich, St. Louis, Mo., USA), 5 μg/mL apo-transferrin (Sigma Aldrich, St. Louis, Mo., USA) and 10^−7M androstenedione (Org 6, Schering-Plough, Oss, The Netherlands)) at 37° C. Follicles were ruptured with a needle and the cells were passed through a cell strainer (70 μm nylon, Becton Dickinson, Bedford, USA). Cells were centrifuged for 10 min at 340×g and resuspended in culture medium. Cells (1×10^5 viable cells/well) were cultured in 96 wells plate for 7 days at 37° C. in a humidified atmosphere (5% CO2, 95% air) in the presence of 0, 20, 100 or 300 mUnits FSH (Org 32489, Schering-Plough, Oss, The Netherlands) in combination with […], 10^−7, […], 10^−9, 10^−10, 10^−11 or 10^−12M rat CART 55-102 (Phoenix Pharmaceuticals Inc., Belmont, Calif., USA). […] After 7 days 17β-estradiol levels were determined in the culture medium using a 17β-estradiol ELISA (Diagnostic Systems Laboratories Inc., Marburg, Germany).

C57B1/6J females [2] = experiment: CART slow release formulation vs. daily CART injections, bone mineral density in mice (in vivo micro-CT, distal femur); conditions: daily s.c. injections of 2 μg in 0.9% NaCl, 30 days
Procedure: In this experiment the effectiveness of CART peptide to improve bone mineral density via a slow release formulation was compared with daily injections of CART. The experiment was conducted in 12 weeks old C57B1/6J females and consisted of four experimental groups (n=5 per group). In the first group of mice 2 placebo slow release pellets (SX-999, 60 day pellets, Innovative Research of America, Sarasota, Fla.) were implanted subcutaneously in the neck. In the second group 2 SX-999 slow release pellets containing 50 μg rat CART55-102 (Phoenix Pharmaceuticals, Inc. Belmont, Calif.) each, were implanted subcutaneously in the neck. The other two groups received daily s.c. injections with either vehicle (0.9% NaCl) or with 2 μg rat CART55-102 peptide in 0.9% NaCl. Mice were sedated with injection anaesthetics (Hypnorm (VetaPharma, Leeds, UK)/Dormicum (Roche, Mijdrecht, The Netherlands)) and bone density was determined in the distal femur by an in vivo micro-CT measurement (Skyscan1076 micro CT scanner, Skyscan, Belgium) at T=0 and at T=30 days. Blood was collected weekly by orbita puncture to determine serum CART levels. BMD (g/cm^3) was expressed as mean±SD of the individual data. Statistical analysis was performed using the Student T-test (two-tailed). P<0.05 was considered as significant.

In the case of “Ile-Pro-Ile-Tyr-Glu-Lys-Lys-Tyr-Gly-Gln-Val-Pro-Met-Cys-Asp-Ala-Gly-Glu-Gln-Cys-Ala-Val-Arg-Lys-Gly-Ala-Arg-Ile-Gly-Lys-Leu-Cys-Asp-Cys-Pro-Arg-Gly-Thr-Ser-Cys-Asn-Ser-Phe-Leu-Leu-Lys-Cys-Leu (IPIYEKKYGQVPMCDAGEQCAVRKGARIGKLCDCPRGTSCNSFLLKCL; disulfide 14-32, 20-40, 34-47; ends not checked) [rat CART 55-102, rat CART 55-102 peptide (rCART) (Phoenix Pharmaceuticals, Inc.)]”, the “increase in trabecular bone mineral density (BMD) as compared to the placebo group” value (from here on “increase … to the placebo group”) (C57B1/6J females [1]; 50 μg rCART in SX-999 slow release pellet s.c., after 60 days) is reported as 40-50%, the “increase … to the placebo group” value (C57B1/6J females [1]; 100 μg (2×50 μg) rCART in SX-999 slow release pellets s.c., after 28 days) is reported as 50-60% and the “increase … to the placebo group” value (C57B1/6J females [1]; 100 μg (2×50 μg) rCART in SX-999 slow release pellets s.c., after 28 days, listed as CART peptide) is reported as 50%. For the same substance, the “increase … to the placebo group” value (C57B1/6J females [1]; 100 μg (2×50 μg) rCART in SX-999 slow release pellets s.c., after 60 days) was 80%, the “suppression of FSH-induced 17β-estradiol production” value (bovine granulosa cells; 100 mUnits FSH) was 1.5 fold and the “suppression of FSH-induced 17β-estradiol production” value (bovine granulosa cells; 300 mUnits FSH) was 3 fold. The “increase in BMD” value (C57B1/6J females [2]) was “did not show an increase in BMD”.
